# Results reported in the COVID Moonshot data (paper PMC7615835).
# “And” between values parts separate entries of the source, which are not always exact repeats. Equal entries are not always repeated.
# Target: SARS-CoV-2 Main Protease (SARS-CoV-2) (UniProt P0DTD1)
row,SMILES,IC50
1,O=C(Cn1nnc2ccccc21)Nc1cccc(Cl)c1,> 99.5 µM
2,CCOC(=O)CNC(=O)C(c1cccnc1)N(C(=O)c1cocn1)c1ccc(C(C)(C)C)cc1 (stereo unspecified),9.53 µM
3,CCOC(=O)CCNC(=O)C(c1cccnc1)N(C(=O)c1cocn1)c1ccc(C(C)(C)C)cc1 (stereo unspecified),2.8 µM
4,N#Cc1ncn(CC(=O)Nc2ccc(Br)cc2Cl)n1,15.7 µM
5,Cc1cc(C(=O)N2Cc3ccc(Cl)cc3C3(CCN(c4cncc5ccccc45)C3=O)C2)n(C)n1 (stereo unspecified),0.464 µM
6,Cc1csc2ncc(C(=O)N3C4CCC3c3ccccc34)c(=O)n12,> 99.5 µM
7,COc1ccccc1N(C(=O)c1ccco1)C(C(=O)NCCc1cccc(F)c1)c1cccnc1 (stereo unspecified),> 99.5 µM
8,O=C(Cc1cc(Cl)cc(Nc2ccccc2OCC(F)(F)F)c1)Nc1cncc2ccccc12,1.96 µM
9,COc1ccc2nnn(CC(=O)N(Cc3ccccn3)c3ccc(C4CCNCC4)cc3)c2c1,38.8 µM
10,O=C(Cc1cccc(Cl)c1)Nc1c[nH]c2ccccc12,> 99.5 µM
11,Cc1ccc(N(C(=O)c2cocn2)C(C(=O)NCCc2cccc(F)c2)c2cccnc2)cc1 (stereo unspecified),50.2 µM
12,Clc1ccc2c(c1)C1(CCO2)CCN(c2cncc3ccccc23)C1 (stereo unspecified),> 99.5 µM
13,CC(C)(C)c1ccc(N(C(=O)c2nc(CN3CCOCC3)cs2)C(C(=O)NCCc2cccc(F)c2)c2cccnc2)cc1 (stereo unspecified),> 99.5 µM
14,O=C(NC[C@@]1(C(=O)Nc2cncc3ccccc23)CCOc2ccc(Cl)cc21)[C@]1(O)CCSC1 (stereo in doubt),1.94 µM
15,CN(C)S(=O)(=O)N1CCc2ccc(Cl)cc2C1C(=O)Nc1cncc2ccccc12 (stereo unspecified),1.97 µM
16,Cc1cc(Nc2cc(Cl)cc(CC(=O)Nc3cncc4ccccc34)c2)ncc1I,2.35 µM
17,O=C(Cc1cccc(Cl)c1)Nc1noc2ncccc12,> 99.5 µM
18,Cc1ccncc1NC(=O)N(C)c1cccc(Cl)c1,> 99.5 µM
19,Cc1ccncc1NC(=O)CCc1cccc(Cl)c1,> 99.5 µM
20,COC1(c2cccc(Cl)c2)CCCN(c2cncc3ccccc23)C1=O (stereo unspecified),2.08 µM
21,O=C(NCCc1cccc(F)c1)C(c1cccnc1)N(Cc1ccccc1C1CCC1)C(=O)c1ccco1 (stereo unspecified),1.93 µM
22,O=C(Cc1cc(Cl)cc(NCc2ccc(OC(F)(F)F)cc2)c1)Nc1cncc2ccccc12,5.52 µM
23,O=C(c1cc(=O)[nH]c2ccccc12)N1CCN(Cc2ccccc2)CC1,8.76 µM
24,O=C(Nc1cnccc1Cl)c1cc(Cl)ccc1O,24.2 µM
25,CC1(CS(=O)(=O)N2Cc3ccc(Cl)cc3[C@@H](C(=O)Nc3cncc4ccccc34)C2)CC1 (stereo in doubt),4.58 µM
26,O=C(Cc1cc(Cl)cc(NCCc2ccc(C(F)(F)F)cc2)c1)Nc1cncc2ccccc12,5.57 µM

row,SMILES,IC50
1,O=C1NCC(C(=O)Nc2cnn3c2CCCC3)c2cc(Cl)ccc21 (stereo unspecified),30.5 µM
2,O=C(Nc1cncc2ccccc12)[C@@H]1COc2ccc(Cl)cc2C1 (stereo in doubt),> 99.5 µM
3,CNS(=O)(=O)c1cc2c(cc1OCc1ccccc1)OCO2,> 99.5 µM
4,CC(CNc1ccc2nnnn2n1)c1nc2ccccc2s1 (stereo unspecified),> 99.5 µM
5,CC(C)(C)c1ccc(N(C(=O)c2cocn2)C(C(=O)NCc2cccnc2)c2cccnc2)cc1 (stereo unspecified),25.3 µM
6,N#CC1(CS(=O)(=O)N2Cc3ccc(Cl)cc3C3(CCN(c4cncc5ccc(Cl)cc45)C3=O)C2)CC1 (stereo unspecified),0.82 µM
7,CC(NC(=O)CCl)c1cc(Cl)cc(-c2ccc(S(N)(=O)=O)cc2)c1 (stereo unspecified),0.466 µM
8,CC12CC3CC(C)(C1)CC(Nc1cc(Cl)cc(CC(=O)Nc4cncc5ccccc45)c1)(C3)C2,1.58 µM
9,CN1Cc2ccc(Cl)cc2C(C(=O)Nc2cncc3ccccc23)C1 (stereo unspecified),2.01 µM
10,CC(C)(C)c1ccc(N(C(=O)c2coc(CS(C)(=O)=O)n2)C(C(=O)NCCc2cccc(F)c2)c2cccnc2)cc1 (stereo unspecified),39.2 µM
11,Cc1ccncc1N1CCC(c2cccc(Cl)c2)S1(=O)=O (stereo unspecified),85 µM
12,COc1ccc(CC(=O)Nc2cncc3ccccc23)cc1,72.5 µM
13,CN(Cc1ccc(Cl)cc1)c1cc(Cl)cc(CC(=O)Nc2cncc3ccccc23)c1,2.42 µM
14,Cn1nc(C(=O)N2CCOCC2)cc1C(=O)N(c1ccc(C(C)(C)C)cc1)C(C(=O)NCCc1cccc(F)c1)c1cccnc1 (stereo unspecified),92.1 µM
15,CN(C)CC1(C(=O)Nc2cncc3ccccc23)CCOc2ccc(Cl)cc21 (stereo unspecified),11.5 µM
16,O=C(Cc1cccc(Cl)c1)NC1COCc2ccccc21 (stereo unspecified),69 µM
17,O=C(CCl)N1CCN(S(=O)(=O)c2cccs2)CC1,2.07 µM and 2.26 µM
18,CC(=O)N1CCN(CC(=O)Nc2cnccc2C2CC2)CC1,> 99.5 µM
19,CN(Cc1ccccc1Br)c1cc(Cl)cc(CC(=O)Nc2cncc3ccccc23)c1,2.11 µM
20,O=C(Nc1cnc2nccn2c1)c1cn2c(Br)cnc2s1,> 99.5 µM
21,Cc1ccncc1NC(=O)Cc1cccc(Br)c1,20.6 µM
22,N#CC1(CS(=O)(=O)N2Cc3ccc(Cl)cc3C(C(=O)Nc3cncc4ccc(F)cc34)C2)CC1 (stereo unspecified),0.137 µM
23,O=C(Cc1cc(Cl)cc(Nc2ccccc2I)c1)Nc1cncc2ccccc12,2.17 µM
24,CNC(=O)c1cc(Cl)cc(CC(=O)Nc2cnccc2C)c1,46.3 µM and 57.3 µM
25,COC(=O)CCSc1cc(Cl)ccc1N(C(=O)c1ccco1)C(C(=O)NCCc1cccc(F)c1)c1cccnc1 (stereo unspecified),16.6 µM
26,NS(=O)(=O)c1cc(CN2CCN(C(c3ccccc3)c3ccccc3)CC2)co1,> 99.5 µM

row,SMILES,IC50
1,Cc1c(Cl)ccc2c1[C@H](C(=O)Nc1cncc3ccccc13)CCO2 (stereo in doubt),3.67 µM
2,CC(C)(C)c1cc(N(C(=O)c2cocn2)C(C(=O)NCCc2cccc(F)c2)c2cccnc2)no1 (stereo unspecified),51.2 µM
3,CN1CCN(c2ccc(Nc3cc(Cl)cc(CC(=O)Nc4cncc5ccccc45)c3)cc2F)CC1,2.8 µM
4,O=C(Cc1cccc(Cl)c1)Nc1c(O)cnc2ccccc12,8.44 µM
5,O=C(Cc1cc(Cl)cc(Nc2cc(F)c(Br)c(F)c2)c1)Nc1cncc2ccccc12,2.05 µM
6,Cn1c(=O)[nH]c2cncc(NC(=O)C3CCOc4ccc(Cl)cc43)c21 (stereo unspecified),20.7 µM
7,O=C(Nc1n[nH]c2ccnc(Br)c12)C1CCOc2ccc(Cl)cc21 (stereo unspecified),> 99.5 µM
8,O=C(CN1CC(C(=O)Nc2cncc3cc(F)ccc23)c2cc(Cl)ccc2C1=O)NCC1CC1 (stereo unspecified),0.216 µM
9,O=C(NCCc1cccc(F)c1)C(c1cccnc1)N(C(=O)c1cnc[nH]1)c1ccc2ncsc2c1 (stereo unspecified),> 99 µM
10,Cc1ccncc1NC(=O)Cc1cc(Cl)cc(NC2CCC(F)(F)C2O)c1 (stereo unspecified),23 µM
11,Cc1cccc2nc(NC3CCN(c4ccc5nncn5n4)C3)sc12 (stereo unspecified),> 99.5 µM
12,O=C(NCCOc1ccccc1)c1cc(=O)[nH]c2ccccc12,> 99.5 µM
13,Cc1ccncc1NC(=O)Cc1cc(Cl)cc(NC2(C)CCC(F)(F)CC2)c1,14.7 µM
14,O=C(CC1(C(=O)Nc2cncc3ccccc23)CCOc2ccc(Cl)cc21)N1CCCCC1c1nnc[nH]1 (stereo unspecified),0.437 µM
15,COc1cc2c(cc1Nc1cc(Cl)cc(CC(=O)Nc3cncc4ccccc34)c1)oc1ccccc12,1.87 µM
16,COc1cc(OC)nc(C#N)n1,> 99.5 µM
17,COc1cnc(C#N)nc1,> 99.5 µM
18,CC(C)(C)OC(=O)CNC(=O)C(c1cccnc1)N(C(=O)c1cocn1)c1ccc(C(C)(C)C)cc1 (stereo unspecified),8.18 µM
19,COc1cc(C)ccc1CN(C(=O)c1cocn1)C(C(=O)NCCc1cccc(F)c1)c1cccnc1 (stereo unspecified),> 99.5 µM
20,O=C(NCC1CCCCC1)[C@@H]1CN(C(=O)CCl)CCN1S(=O)(=O)c1ccsc1 (stereo in doubt),1.1 µM
21,COc1c(Cl)cccc1Nc1cc(Cl)cc(CC(=O)Nc2cncc3ccccc23)c1,1.68 µM
22,COC1(CS(=O)(=O)N2Cc3ccc(Cl)cc3C3(CCN(c4cncc5cc(S(C)(=O)=O)ccc45)C3=O)C2)CC1 (stereo unspecified),0.413 µM
23,C[C@@H]1C[C@H](C(=O)Nc2cncc3ccccc23)c2cc(Cl)ccc2O1 (stereo in doubt),0.679 µM
24,CN(C)CCCOc1ccc2cncc(N3CCC4(CN(S(=O)(=O)CC5(C#N)CC5)Cc5ccc(Cl)cc54)C3=O)c2c1 (stereo unspecified),0.149 µM
25,N#Cc1ccc(CC(=O)Nc2cncc3ccccc23)cc1,> 99.5 µM
26,O=C(CC1(C(=O)Nc2cncc3ccccc23)CCOc2ccc(Cl)cc21)N1CCC2C1CCCN2CCO (stereo unspecified),4.66 µM

row,SMILES,IC50
1,CC(NC(=O)CN)(C(=O)Nc1cncc2ccccc12)c1ccc(Cl)c(Cl)c1 (stereo unspecified),6.21 µM and 1.84 µM
2,O=C(Cc1cccc(Cl)c1)Nc1ncnc2ccccc12,> 99.5 µM
3,N#Cc1ccc(Cl)c(Nc2cc(Cl)cc(CC(=O)Nc3cncc4ccccc34)c2)c1,1.99 µM
4,CCc1cc(F)ccc1-c1cc(Cl)cc(CC(=O)Nc2cnccc2C)c1,31.6 µM
5,N#Cc1cnn(C(=O)c2cccs2)c1C1CC1,3.24 µM
6,O=C(Cc1cc(Cl)cc(Nc2cc(Cl)cnc2Br)c1)Nc1cncc2ccccc12,1.99 µM
7,CS(=O)(=O)Nc1ccc2cncc(NC(=O)C3CNC(=O)c4ccc(Cl)cc43)c2c1 (stereo unspecified),0.195 µM
8,O=C(NCCc1cccc(F)c1)C(c1cccnc1)N(Cc1cc(C(F)(F)F)cs1)C(=O)c1ccco1 (stereo unspecified),> 99.5 µM
9,Cc1cc(C)n(C2CCCN(C(=O)c3c[nH]c4ncccc34)C2)n1 (stereo unspecified),> 99.5 µM
10,O=C(Cc1cc(Cl)cc(Nc2cc(Br)cc(C(F)(F)F)c2)c1)Nc1cncc2ccccc12,1.87 µM
11,CCN(CC)S(=O)(=O)c1ccc(Nc2cc(Cl)cc(CC(=O)Nc3cncc4ccccc34)c2)cc1,2.15 µM
12,O=C(Nc1cncc2ccncc12)C1CCOc2cc(F)c(Cl)cc21 (stereo unspecified),1.1 µM
13,O=C(NCCc1cccc(F)c1)C(c1cccnc1)N(C(=O)c1cocn1)C1CCCOC1 (stereo unspecified),> 99.5 µM
14,Cc1ccc(C(Cc2cnn(C)c2)C(=O)Nc2n[nH]c3ccccc23)cc1 (stereo unspecified),> 99.5 µM
15,CC(C)(C)c1ccc(N(C(=O)c2cocn2)C(C(=O)NCc2ccncc2)c2cccnc2)cc1 (stereo unspecified),> 99.5 µM
16,O=C(CC1(C(=O)Nc2cncc3ccccc23)CCOc2ccc(Cl)cc21)N1CCCC1c1nn[nH]n1 (stereo unspecified),7.98 µM
17,CC(C)(C)c1ccc(N(C(=O)c2ccco2)C(C(=O)NCCc2cccc(F)c2)c2cncc3ccccc23)cc1 (stereo unspecified),0.403 µM
18,O=C1CCCN1Cc1cccc(C(=O)N2CCC(C3CCNC3)CC2)c1 (stereo unspecified),> 99.5 µM
19,CN(C)C(=O)CNC(=O)C(c1cccnc1)N(C(=O)c1ccco1)c1ccc(C(C)(C)C)cc1 (stereo unspecified),10.9 µM
20,CNC(=O)CN1Cc2ccc(Cl)cc2[C@]2(CCN(c3cncc4c3CCCC4)C2=O)C1 (stereo in doubt),> 99.5 µM
21,c1ccc2oc(C3CCCN(Cc4cnc5cnccn45)C3)nc2c1 (stereo unspecified),> 99.5 µM
22,COCc1csc(N(C(=O)c2cocn2)C(C(=O)NCCc2cccc(F)c2)c2cccnc2)n1 (stereo unspecified),> 99.5 µM
23,O=C(Cc1cc(Cl)cc(Nc2cc(Cl)cc([N+](=O)[O-])c2O)c1)Nc1cncc2ccccc12,4.69 µM
